Assay results published in patent US8722868B2, “Glycosyltransferase, novel glycosyltransferase gene, and novel sugar donor compound” (National University Corporation Tokyo University of …, priority 2009, dated 2014).

target: T1, crude enzyme obtained from pink petals of a carnation (variety: "Beam Cherry") (glycosyltransferase) (Dianthus caryophyllus, UniProt E3W9M2); test: Relative activity of crude carnation petal enzyme on each sugar donor (glycosyl transfer to cyanidin 3-glucoside, HPLC); assay type: biochemical; settings: crude enzyme 61 μg, cyanidin β-glucoside 200 μM, sugar donor 500 μM, citric acid buffer pH 5.6, 30° C., 15 minutes; HPLC area of cyanidin 3,5-O-β diglucoside
T1 construct: Thus, a crude enzyme liquid was obtained; from tissue; host or cells: pink petals of carnation, variety Beam Cherry (ammonium sulfate precipitate, desalted)
T1 sequence (E3W9M2 31-502): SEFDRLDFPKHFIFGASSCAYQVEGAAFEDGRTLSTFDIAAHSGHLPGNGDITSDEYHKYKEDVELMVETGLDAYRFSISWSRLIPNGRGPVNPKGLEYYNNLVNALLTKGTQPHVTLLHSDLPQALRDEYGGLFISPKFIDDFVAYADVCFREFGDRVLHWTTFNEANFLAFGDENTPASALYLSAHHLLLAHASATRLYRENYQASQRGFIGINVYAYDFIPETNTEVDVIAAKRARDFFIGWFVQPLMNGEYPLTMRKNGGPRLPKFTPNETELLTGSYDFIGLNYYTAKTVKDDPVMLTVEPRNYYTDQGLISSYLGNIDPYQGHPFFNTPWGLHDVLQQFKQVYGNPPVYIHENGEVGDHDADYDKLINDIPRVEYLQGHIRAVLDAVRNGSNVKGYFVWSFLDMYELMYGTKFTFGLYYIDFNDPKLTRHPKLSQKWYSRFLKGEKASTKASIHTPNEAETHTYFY
Procedure: An enzyme reaction was carried out at 30° C. for 15 minutes in a reaction solution obtained by adding a citric acid buffer (pH 5.6) to a crude enzyme obtained from pink petals of a carnation (variety: “Beam Cherry”) (61 μg), cyanidin β-glucoside (200 μM), and a sugar donor (1-O-β-vanillyl glucose extracted from a carnation or any of synthesized 1-O-vanillyl glucose (in the α or β form), 1-O-isovanillyl glucose (in the α or β form), and 1-O-galloyl glucose (in the α or β form)) (500 μM) to a final volume of 30 μl. The reaction was terminated by adding a 20% phosphoric acid aqueous solution to the reaction liquid so as to result in a final phosphoric acid concentration of 1%, followed by centrifugation. The obtained supernatant was subjected to separation using an HPLC (Chromolith Speed ROD; 4.6×50 mm; Merck) with a linear gradient (5 minutes) of 18% to 28% liquid B containing eluent A (a 1.5% phosphoric acid aqueous solution) and eluent B (a 90% methanol aqueous solution) (flow rate: 3.0 ml/min; 520 nm), followed by analysis. The relative activity of the enzyme on each sugar donor was calculated based on the HPLC chromatogram area of a reaction product (cyanidin 3,5-O-β diglucoside) at a wavelength of 505 nm.

Point of comparison: COc1ccc(C(=O)OC2OC(CO)C(O)C(O)C2O)cc1O (stereo not drawn) [1-O-β-isovanillyl glucose (synthetic), 1-O-β-isovanillyl glucose], “Relative activity of an enzyme on a sugar donor (when synthetic 1-O-β-vanillyl glucose is set as 100)” value (“Relative activity of an enzyme” below) 23.1. Against it:
- 1-O-α-vanillyl glucose [1-O-α-vanillyl glucose (synthetic)] — lower, 1.7
- O=C(O[C@@H]1O[C@H](CO)[C@@H](O)[C@H](O)[C@H]1O)c1cc(O)c(O)c(O)c1 [1-O-β-galloyl glucose (synthetic), 1-O-β-galloyl glucose] — lower, 2.4

COc1ccc(C(=O)O[C@H]2O[C@H](CO)[C@@H](O)[C@H](O)[C@H]2O)cc1O [1-O-α-isovanillyl glucose (synthetic), 1-O-α-isovanillyl glucose] was tested, and the “Relative activity of an enzyme” value was “Not detectable”.

target: T2, enzyme purified from pink petals of a carnation (variety: "Beam Cherry") (glycosyltransferase) (Dianthus caryophyllus, UniProt E3W9M2); test: Relative activity of glycosyltransferase purified from carnation on each sugar donor (HPLC); assay type: biochemical; settings: purified enzyme 135 ng, cyanidin 3-glucoside 200 μM, sugar donor 500 μM, citric acid buffer pH 5.6, 30° C., 15 minutes; HPLC area of cyanidin 3,5-O-β-diglucoside
T2 construct: the enzyme comprising 502 amino acid residues was translated, followed by amino acid removal via processing; from tissue; host or cells: petals of carnation, variety Beam Cherry
T2 sequence (E3W9M2 31-502): T1 sequence (E3W9M2 31-502)
Procedure: An enzyme reaction was carried out at 30° C. for 15 minutes using an enzyme (135 ng) purified from pink petals of a carnation (variety: “Beam Cherry”) by the method described in Example 2 ((1) and (2)), cyanidin 3-glucoside (200 μM), and a sugar donor (1-O-β-D-vanillyl glucose or any of 1-O-β-D-p-coumaryl glucose, 1-O-β-D-caffeyl glucose, 1-O-β-D-feruloyl glucose, and 1-O-β-D-sinapoyl glucose that had been enzymatically synthesized according to the method described in Matsuba Y et al., Plant Biotechnology vol. 25, No. 4 (2008) pp. 369-375) (500 μM) in a reaction solution adjusted to 30 μl with the addition of a citric acid buffer (pH 5.6). A 20% phosphoric acid aqueous solution was added to the reaction liquid so as to result in a final phosphoric acid concentration of 1%. Thus, the reaction was terminated, followed by centrifugation. The resulting supernatant was subjected to separation using a HPLC column (Chromolith SpeedROD, 4.6×50 mm, Merck), eluent A (a 1.5% phosphoric acid aqueous solution), and eluent B (a 90% methanol aqueous solution) with a linear gradient of 18% to 28% liquid B (flow rate: 3.0 ml/min, 520 nm) (5 minutes), followed by analysis. The relative activity of the enzyme on each sugar donor was determined by calculating the area of the reaction product (cyanidin 3,5-O-β-diglucoside) on an HPLC chromatogram at a wavelength of 505 nm.

Point of comparison: O=C(/C=C/c1ccc(O)c(O)c1)OC1OC(CO)C(O)C(O)C1O [1-O-β-D-caffeyl glucose (synthetic), 1-O-β-caffeyl glucose], “Relative activity of an enzyme” value 464. Against it:
- COc1cc(/C=C/C(=O)OC2OC(CO)C(O)C(O)C2O)ccc1O [1-O-β-D-feruloyl glucose (synthetic), 1-O-β-feruloyl glucose] — higher, 1320
- O=C(/C=C/c1ccc(O)cc1)OC1OC(CO)C(O)C(O)C1O [1-O-β-D-p-coumaryl glucose (synthetic), 1-O-β-p-coumaryl glucose] — lower, 350
- COc1cc(/C=C/C(=O)OC2OC(CO)C(O)C(O)C2O)cc(OC)c1O [1-O-β-D-sinapoyl glucose (synthetic), 1-O-β-sinapoyl glucose] — higher, 793
